In PubChem BioAssay AID1259407 (Chemical Carcinogenesis Research Information System (CCRIS), 2018):
Calls of active or inactive are those of the source. The rule behind the calls is not given here.

Tested on: CCRIS mutagenicity, Ames/micronucleus/aberration tests
Assay: CCRIS mutagenicity studies
[1] = Test System: AMES SALMONELLA TYPHIMURIUM, Strain/Indicator: TA98, Metabolic Activation: NONE, Method: FLUCTUATION TEST
[2] = Test System: AMES SALMONELLA TYPHIMURIUM, Strain/Indicator: TA98, Metabolic Activation: NONE, Method: PREINCUBATION
[3] = Test System: AMES SALMONELLA TYPHIMURIUM, Strain/Indicator: TA100, Metabolic Activation: NONE, Method: FLUCTUATION TEST
[4] = Test System: AMES SALMONELLA TYPHIMURIUM, Strain/Indicator: TA100, Metabolic Activation: NONE, Method: PREINCUBATION
[5] = Test System: AMES SALMONELLA TYPHIMURIUM, Strain/Indicator: TA100, Metabolic Activation: RAT, LIVER, S-9, PHENOBARBITAL AND 5,6-BENZOFLAVONE, Method: PREINCUBATION
[6] = Test System: AMES SALMONELLA TYPHIMURIUM, Strain/Indicator: TA98, Metabolic Activation: RAT, LIVER, S-9, AROCLOR 1254, Method: STANDARD PLATE
[7] = Test System: AMES SALMONELLA TYPHIMURIUM, Strain/Indicator: TA100, Metabolic Activation: RAT, LIVER, S-9, AROCLOR 1254, Method: STANDARD PLATE
[8] = Test System: AMES SALMONELLA TYPHIMURIUM, Strain/Indicator: TA1537, Metabolic Activation: NONE, Method: STANDARD PLATE
[9] = Test System: AMES SALMONELLA TYPHIMURIUM, Strain/Indicator: TA1537, Metabolic Activation: RAT, LIVER, S-9, AROCLOR 1254, Method: STANDARD PLATE
[10] = Test System: AMES SALMONELLA TYPHIMURIUM, Strain/Indicator: TA98, Metabolic Activation: NONE, Method: STANDARD PLATE
[11] = Test System: AMES SALMONELLA TYPHIMURIUM, Strain/Indicator: TA100, Metabolic Activation: NONE, Method: STANDARD PLATE
[12] = Test System: AMES SALMONELLA TYPHIMURIUM, Strain/Indicator: TA102, Metabolic Activation: NONE, Method: PREINCUBATION

Measured: mutagenic call

C[C@H](CCC(=O)O)[C@H]1CC[C@H]2[C@@H]3CC[C@@H]4CC(=O)CC[C@]4(C)[C@H]3CC(=O)[C@]12C
inactive: [1] inactive; negative | [2] inactive; negative | [3] inactive; negative

CC1=C(O)C(=O)CO1
active: [4] active; positive | [5] active; positive

NNc1nc(-c2ccc([N+](=O)[O-])cc2)cs1
active: Test System: AMES SALMONELLA TYPHIMURIUM, Strain/Indicator: TA98, Metabolic Activation: RAT, LIVER, S-9, KC500 OR PHENOBARBITAL, Method: LIQUID SUSPENSION active; positive | Test System: AMES SALMONELLA TYPHIMURIUM, Strain/Indicator: TA100, Metabolic Activation: RAT, LIVER, S-9, KC500 OR PHENOBARBITAL, Method: LIQUID SUSPENSION active; positive

Cc1cc(O)c2c(c1)C(=O)C13C(=C2O)C(=O)C2C(O)C1C1C(O)C3C(=O)C3=C(O)c4c(O)cc(C)cc4C(=O)C321 (stereo unspecified)
inactive: [6] inactive; negative | [7] inactive; negative | [8] inactive; negative | [9] inactive; negative

CC(=O)Nc1ccc2c(=O)c(=O)c3cccc4ccc1c2c43
inactive: Test System: AMES SALMONELLA TYPHIMURIUM, Strain/Indicator: TA98(1,8-DNP6), Metabolic Activation: NONE, Method: STANDARD PLATE inactive; negative | [10] inactive; negative | Test System: AMES SALMONELLA TYPHIMURIUM, Strain/Indicator: YG1024, Metabolic Activation: NONE, Method: STANDARD PLATE inactive; negative
active: Test System: AMES SALMONELLA TYPHIMURIUM, Strain/Indicator: TA98(1,8-DNP6), Metabolic Activation: RAT, LIVER, S-9, AROCLOR 1254, Method: STANDARD PLATE active; positive | [6] active; positive | Test System: AMES SALMONELLA TYPHIMURIUM, Strain/Indicator: YG1024, Metabolic Activation: RAT, LIVER, S-9, AROCLOR 1254, Method: STANDARD PLATE active; positive

N[C@@H](Cc1ccccc1)C(=O)O
inactive: [10] inactive; negative | [6] inactive; negative | [11] inactive; negative | [7] inactive; negative

CC1=CC(=O)C=C(C)C1=O
active: Test System: AMES SALMONELLA TYPHIMURIUM, Strain/Indicator: TA2637, Metabolic Activation: NONE, Method: PREINCUBATION active; positive
inactive: [2] inactive; negative | Test System: AMES SALMONELLA TYPHIMURIUM, Strain/Indicator: TA98, Metabolic Activation: RAT, LIVER, S-9, PHENOBARBITAL AND 5,6-BENZOFLAVONE, Method: PREINCUBATION inactive; negative | [4] inactive; negative | [5] inactive; negative | [12] inactive; negative | Test System: AMES SALMONELLA TYPHIMURIUM, Strain/Indicator: TA102, Metabolic Activation: RAT, LIVER, S-9, PHENOBARBITAL AND 5,6-BENZOFLAVONE, Method: PREINCUBATION inactive; negative | Test System: AMES SALMONELLA TYPHIMURIUM, Strain/Indicator: TA104, Metabolic Activation: NONE, Method: PREINCUBATION inactive; negative | Test System: AMES SALMONELLA TYPHIMURIUM, Strain/Indicator: TA104, Metabolic Activation: RAT, LIVER, S-9, PHENOBARBITAL AND 5,6-BENZOFLAVONE, Method: PREINCUBATION inactive; negative | Test System: AMES SALMONELLA TYPHIMURIUM, Strain/Indicator: TA2637, Metabolic Activation: RAT, LIVER, S-9, PHENOBARBITAL AND 5,6-BENZOFLAVONE, Method: PREINCUBATION inactive; negative

OCl
inactive: End Point: IN VIVO MICRONUCLEUS, Test System: BONE MARROW POLYCHROMATIC ERYTHROCYTES, Species: MOUSE, Strain/Sex: DDY/MALE, Route: IP inactive; negative | Test System: AMES SALMONELLA TYPHIMURIUM, Strain/Indicator: TA97, Metabolic Activation: NONE, Method: PREINCUBATION inactive; negative | Test System: AMES SALMONELLA TYPHIMURIUM, Strain/Indicator: TA97, Metabolic Activation: RAT, LIVER, S-9, AROCLOR 1254, Method: PREINCUBATION inactive; negative | [1] inactive; negative | [10] inactive; negative | [6] inactive; negative | [3] inactive; negative | [11] inactive; negative | [7] inactive; negative | Test System: AMES SALMONELLA TYPHIMURIUM, Strain/Indicator: TA102, Metabolic Activation: NONE, Method: FLUCTUATION TEST inactive; negative | [12] inactive; negative | Test System: AMES SALMONELLA TYPHIMURIUM, Strain/Indicator: TA102, Metabolic Activation: RAT, LIVER, S-9, AROCLOR 1254, Method: PREINCUBATION inactive; negative | Test System: AMES SALMONELLA TYPHIMURIUM, Strain/Indicator: TA1535, Metabolic Activation: NONE, Method: STANDARD PLATE inactive; negative | Test System: AMES SALMONELLA TYPHIMURIUM, Strain/Indicator: TA1535, Metabolic Activation: RAT, LIVER, S-9, AROCLOR 1254, Method: STANDARD PLATE inactive; negative | [8] inactive; negative | [9] inactive; negative | Test System: AMES SALMONELLA TYPHIMURIUM, Strain/Indicator: TA1538, Metabolic Activation: NONE, Method: STANDARD PLATE inactive; negative | Test System: AMES SALMONELLA TYPHIMURIUM, Strain/Indicator: TA1538, Metabolic Activation: RAT, LIVER, S-9, AROCLOR 1254, Method: STANDARD PLATE inactive; negative | Test System: CHINESE HAMSTER OVARY, Strain/Indicator: CHO-K1-BH4 (HGPRT), Metabolic Activation: NONE, Method: STANDARD PLATE inactive; negative | Test System: UDS RODENT HEPATOCYTES, Strain/Indicator: THY INCORP (NON-S-PHASE), Metabolic Activation: NONE, Method: LIQUID SCINTILLATION COUNTING inactive; negative
